# Measurements reported in EP4813383A1, “USE OF TAFAMIDIS AND PHARMACEUTICALLY ACCEPTABLE SALT THEREOF IN PREVENTION, ALLEVIATION, OR TREATMENT OF DISEASES ASSOCIATED WITH HIF-2a” (Huaya Jiyuan (Shenzhen) Pharmaceutical Co., Ltd., priority 2024, dated 2025).
# pEC50: −log10 of the molar value.
# Experiments:
# [1] = target: T1, HIF-2α (Homo sapiens, UniProt Q99814); experiment: Luciferase reporter gene assay (HRE-driven luciferase in stably transfected 786-O cells); type: cell-based
# T1 construct: 786-O is a renal carcinoma cell line that predominantly expresses HIF-2α and lacks functional HIF-1α; endogenous in cells; host or cells: 786-O cells stably carrying an HRE-driven luciferase reporter
# Excerpt: Experimental principles: 786-O is a renal carcinoma cell line that predominantly expresses HIF-2α and lacks functional HIF-1α. This characteristic makes 786-O cells an ideal model for studying HIF-2α transcriptional activity and related signaling pathways. In the luciferase reporter gene assay, a 786-O monoclonal cell line that stably expresses hypoxia response element (HRE)-driven luciferase (Luc) activity is obtained through puromycin selection. The HIF-2α agonist promotes dimerization of HIF-2α and HIF-β, and activates an HRE promoter. By measuring fluorescence intensity, luciferase activity can be determined, thereby assessing the ability of the HIF-2α agonist to promote transcription.
# Experimental method: A total of 6000 stably transfected 786-O cells stably containing HRE and Luc sequences are seeded in each well of a 96-well plate, and 100 µL of RPMI-1640 culture medium containing 10% fetal bovine serum is added to each well. After 24 hours, a compound at a corresponding concentration is added to each well. A blank group is set as a control. Only a DMSO solvent is added in the well of the blank group. For initial compound screening, both tafamidis and tafamidis meglumine are tested at two concentrations: 2 µM and 20 µM. For concentration-gradient determination, each concentration is tested in triplicate. After co-incubation for 24 hours, the culture medium is discarded, and 20 µL of firefly luciferase reporter gene cell lysis buffer (RG126M, Beyotime) is added to each well. The 96-well plate is shaken on a microplate shaker for 10 minutes. After shaking, 10 µL of lysate is transferred into a white opaque plate, and then 10 µL of Steady-Lumi™ firefly luciferase assay reagent (RG058S, Beyotime) is added to each well. Finally, luminescence is measured using a microplate reader (Agilent Synergy Neo2). E20 represents the effect of the compound at a 20 µM concentration, and is calculated as: E20 = fluorescence value of the 20 µM well ÷ fluorescence value of the blank control × 100%. E2 represents the effect of the compound at a 2 µM concentration, and is calculated as: E2 = fluorescence value of the 2 µM well ÷ fluorescence value of the blank control × 100%. EC50 is the compound concentration at which the agonistic efficacy is increased by 50% relative to the blank control. The agonistic efficacy of a compound is determined by calculating the concentration (EC50) required to achieve a 50% increase in the fluorescence activity relative to the blank control and a maximum activation percentage (Emax). The maximum activation percentage (Emax) of an agonist refers to a ratio, expressed as a percentage, of the fluorescence value corresponding to the maximal effect (observed maximal response) induced when the agonist concentration reaches receptor-binding saturation in a particular receptor system, to the fluorescence value of the receptor system in the absence of agonist. In this experiment, Vyndaqel is directly used in place of tafamidis meglumine.
# [2] = system: vascular endothelial growth factor (VEGF) gene expression; experiment: qRT-PCR assay of VEGF gene expression in 786-O renal carcinoma cells; type: cell-based; conditions: 24 hours, relative to the vehicle, GAPDH internal control
# Protocol: (§1) Experimental method: 786-O renal carcinoma cells are seeded into a 12-well plate. After 24 hours, tafamidis is added at different concentrations (1 µM, 10 µM, and 20 µM, separately), and the cells are co-incubated with the compound for 24 hours. No treatment is applied to the vehicle group. RNA is extracted using a TRIZOL reagent. cDNA transcription is performed using an All-in-one™ First-Strand cDNA Synthesis Kit (for specific operating procedures, see the manufacturer's instructions). A SYBR reagent is used for fluorescence signal detection, and GAPDH is used as an internal control. The qRT-PCR primers are as follows: • GAPDH_fwd, […]; • GAPDH_rev, TGGTGAAGACGCCAGTGGA; • VEGF_fwd, […]; • VEGF_rev, […]; • EPO_fwd, […]; • EPO_rev, […].
# [3] = system: erythropoietin (EPO) gene expression; experiment: qRT-PCR assay of EPO gene expression in 786-O renal carcinoma cells; type: cell-based; conditions: 20 µM, 24 hours, relative to the vehicle, GAPDH internal control
# Protocol: as §1
# [4] = system: aristolochic acid-induced zebrafish model; experiment: Aristolochic acid-induced zebrafish chronic kidney disease model: renal edema incidence; type: in vivo, Wild-type AB strain zebrafish; conditions: 1 µM in aqueous solution, 30 hours; model group 100%
# Protocol: Wild-type AB strain zebrafish at 2 days post-fertilization (2 dpf) are randomly selected and placed in a 6-well plate, with 30 zebrafish treated in each well (treatment group). Other than the normal control group, all treatment groups are exposed to aristolochic acid in aqueous solution to establish a zebrafish renal anemia model. After treatment at 28 °C for 18 hours, a normal control group and a model control group are set up simultaneously. Tafamidis samples are administered in aqueous solution to the treatment groups separately (at concentrations of 20 µM, 10 µM, and 1 µM separately, each concentration being tested in triplicate). Water is administered to the normal control group and the model control group correspondingly, with a volume of 3 mL per well.
# [5] = system: Cisplatin-induced renal injury and anemia rat model; experiment: Cisplatin-induced renal injury and anemia rat model; type: in vivo, Male Sprague-Dawley (SD) rats; conditions: 10 mg/kg daily oral for four weeks, kidney sections
# T1 sequence (Q99814 whole entry): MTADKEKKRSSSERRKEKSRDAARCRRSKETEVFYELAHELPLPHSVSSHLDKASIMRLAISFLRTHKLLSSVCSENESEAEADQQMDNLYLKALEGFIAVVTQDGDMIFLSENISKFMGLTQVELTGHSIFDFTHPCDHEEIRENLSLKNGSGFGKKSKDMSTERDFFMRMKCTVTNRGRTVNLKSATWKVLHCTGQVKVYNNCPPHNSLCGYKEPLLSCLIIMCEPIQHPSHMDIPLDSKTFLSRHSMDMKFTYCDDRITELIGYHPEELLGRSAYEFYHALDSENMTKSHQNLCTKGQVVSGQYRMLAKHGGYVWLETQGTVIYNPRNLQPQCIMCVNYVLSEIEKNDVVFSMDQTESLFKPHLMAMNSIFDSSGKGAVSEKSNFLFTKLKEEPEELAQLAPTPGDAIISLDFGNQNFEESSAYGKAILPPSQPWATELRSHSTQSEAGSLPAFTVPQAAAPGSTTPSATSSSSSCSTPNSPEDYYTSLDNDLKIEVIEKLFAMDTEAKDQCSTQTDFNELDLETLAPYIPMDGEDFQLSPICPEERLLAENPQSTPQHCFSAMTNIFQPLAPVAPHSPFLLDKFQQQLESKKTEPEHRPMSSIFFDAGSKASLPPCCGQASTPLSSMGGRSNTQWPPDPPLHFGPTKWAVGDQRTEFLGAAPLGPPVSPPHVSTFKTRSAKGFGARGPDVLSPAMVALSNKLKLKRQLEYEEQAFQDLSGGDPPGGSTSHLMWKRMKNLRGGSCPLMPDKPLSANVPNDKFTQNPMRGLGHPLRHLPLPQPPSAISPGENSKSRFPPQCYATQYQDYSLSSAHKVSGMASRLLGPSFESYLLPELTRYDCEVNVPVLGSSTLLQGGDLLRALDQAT
# T1 sequence (P27540 whole entry partner): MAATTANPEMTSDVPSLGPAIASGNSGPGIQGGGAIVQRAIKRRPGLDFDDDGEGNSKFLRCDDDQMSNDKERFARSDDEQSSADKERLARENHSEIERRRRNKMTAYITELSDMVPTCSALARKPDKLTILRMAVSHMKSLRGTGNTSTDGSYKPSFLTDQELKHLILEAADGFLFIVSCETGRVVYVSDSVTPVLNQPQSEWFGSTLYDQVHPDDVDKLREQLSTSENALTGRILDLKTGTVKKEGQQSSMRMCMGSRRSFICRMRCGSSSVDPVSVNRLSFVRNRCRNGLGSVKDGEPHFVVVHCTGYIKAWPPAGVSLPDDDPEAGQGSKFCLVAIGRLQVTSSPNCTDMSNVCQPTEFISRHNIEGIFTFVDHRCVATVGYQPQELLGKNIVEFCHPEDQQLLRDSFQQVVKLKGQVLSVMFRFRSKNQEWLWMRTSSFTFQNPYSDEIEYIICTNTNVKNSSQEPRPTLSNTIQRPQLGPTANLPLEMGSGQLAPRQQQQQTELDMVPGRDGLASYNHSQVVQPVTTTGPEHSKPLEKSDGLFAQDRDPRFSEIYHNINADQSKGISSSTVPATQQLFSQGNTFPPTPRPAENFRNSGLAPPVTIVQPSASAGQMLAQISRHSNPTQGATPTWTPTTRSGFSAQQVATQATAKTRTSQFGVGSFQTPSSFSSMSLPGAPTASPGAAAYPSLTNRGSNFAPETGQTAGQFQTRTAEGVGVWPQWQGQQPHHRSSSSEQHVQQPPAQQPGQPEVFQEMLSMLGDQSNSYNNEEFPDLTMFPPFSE
compound,measurement,setting,value
"O=C(O)c1ccc2nc(-c3cc(Cl)cc(Cl)c3)oc2c1 [tafamidis, 2-(3,5-dichlorophenyl)-1,3-benzoxazole-6-carboxylic acid]",agonistic efficacy at a 2 µM concentration (E2),"[1]; 2 µM, 24 hours co-incubation, fluorescence value as % of blank control (DMSO)",142%
same,agonistic efficacy at a 20 µM concentration (E20),"[1]; 20 µM, 24 hours co-incubation, fluorescence value as % of blank control (DMSO)",207%
same,Emax,"[1]; 786-0, read-out: Emax (maximum activation percentage), maximal response as % of fluorescence without agonist",225%
same,pEC50,"[1]; concentration required for a 50% increase in fluorescence activity relative to the blank control, 24 hours, read-out: EC50",5.95
same,upregulates vascular endothelial growth factor (VEGF) gene expression,[2]; 10 µM,0.5 fold
same,upregulates VEGF gene expression,[2]; 20 µM,1.4 fold
same,upregulates erythropoietin (EPO) gene expression,[3],0.9 fold
same,renal edema incidence,[4],80%
same,"α-smooth muscle actin (α-SMA) protein levels, immunohistochemical",[5],significantly reduces
